# Test results taken from publication PMC3563422 (Bioorganic & medicinal chemistry, 2012).
# Key:
# Assay type in all cases: biochemical
# DENV2 NS2B/NS3pro = DENV2 NS2B/NS3pro (Dengue virus type 2, UniProt P14340); test: In vitro DENV2 NS2B/NS3pro protease inhibition assay; settings: screened at 25 μM
# WNV NS2B/NS3pro [1] = target: T1, WNV NS2B/NS3pro (West Nile virus, UniProt Q9Q6P4); test: In vitro WNV NS2B/NS3pro protease inhibition assay; settings: screened at 25 μM
# Dengue virus protease = Dengue virus protease (Dengue virus type 2, UniProt P14340); test: Kinetics analysis of DENV NS2B/NS3pro inhibition
# WNV NS2B/NS3pro [2] = target: T1, WNV NS2B/NS3pro; test: Kinetics analysis of WNV NS2B/NS3pro inhibition; settings: for kcat of tetra-peptide substrate: 37 °C, WNV NS2B/NS3pro 28 nM
# T1 sequence (Q9Q6P4 1506-1683): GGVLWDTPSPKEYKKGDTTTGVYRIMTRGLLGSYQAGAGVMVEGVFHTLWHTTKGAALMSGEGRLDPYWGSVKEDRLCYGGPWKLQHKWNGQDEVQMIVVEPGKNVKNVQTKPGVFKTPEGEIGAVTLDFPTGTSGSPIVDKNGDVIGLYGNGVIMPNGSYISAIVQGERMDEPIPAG
# Chain of Dengue virus protease (P14340 1476-1653): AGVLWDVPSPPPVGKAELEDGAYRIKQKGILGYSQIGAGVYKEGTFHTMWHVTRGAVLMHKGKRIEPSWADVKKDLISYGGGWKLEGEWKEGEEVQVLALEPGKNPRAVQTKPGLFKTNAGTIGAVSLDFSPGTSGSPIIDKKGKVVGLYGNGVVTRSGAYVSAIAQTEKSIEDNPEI
# Chain of DENV2 NS2B/NS3pro (P14340 1476-1653): as above
Compound,activity against DENV NS2B/NS3pro (screen) (DENV2 NS2B/NS3pro),activity against WNV NS2B/NS3pro (screen) (WNV NS2B/NS3pro [1]),Ki (Dengue virus protease) [µM],mode of inhibition of Dengue virus protease (Dengue virus protease; from kinetics data),Ki (WNV NS2B/NS3pro [2]) [µM],kcat of tetra-peptide substrate (WNV NS2B/NS3pro [2]; [7n] = 1 μM) [s⁻¹],kcat of tetra-peptide substrate (WNV NS2B/NS3pro [2]; [7n] = 3 μM) [s⁻¹],kcat of tetra-peptide substrate (WNV NS2B/NS3pro [2]; [7n] = 5 μM) [s⁻¹],mode of inhibition of West Nile virus protease (WNV NS2B/NS3pro [2]; from kinetics data)
O=C(NCc1cn(CSc2ccccc2)nn1)Nc1ccc(C(=O)Nc2ccc(Oc3ccccc3)cc2)cc1 [Compound 7a],inactive,inactive,,,,,,,
O=C(NCc1cn(Cc2ccc(F)cc2)nn1)Nc1ccc(C(=O)Nc2ccc(Oc3ccccc3)cc2)cc1 [Compound 7n],,,8.77,competitive,5.55,0.059 ± 0.0014,0.062 ± 0.0018,0.055 ± 0.0020,competitive
O=C(NCc1cn(Cc2ccccc2)nn1)Nc1cccc(C(=O)Nc2cccc(Oc3ccccc3)c2)c1 [Compound 8f],inactive,inactive,,,,,,,
